Measurements taken from ChEMBL document CHEMBL6178014, “Discovery and Administration Optimization of Novel Selective CDK9 Inhibitor, 1-7a-B1, for Improved Pharmacokinetics and Antitumor Efficacy In Vivo” (J Med Chem, 2025).
Calls of active or inactive are those of the source. The calls are words filed in the database; no cut-off is given here.

Columns and labels:
[1] = tested on: HCT-116; assay: Downregulation of c-Myc mRNA level in human HCT-116 cells at 200 to 400 nM incubated for 48 hrs by qRT-PCR analysis; assay type: functional, cell-based; settings: dose 200-400 nM
[2] = tested on: HCT-116; assay: Upregulation of p21 expression in human HCT-116 cells at 100 to 400 nM incubated for 48 hrs by Western blot analysis; assay type: functional, cell-based; settings: dose 100-400 nM
[3] = Toxicity in female BALB/c nu-nu mouse xenografted with human HCT-116 cells assessed as body weight loss at 40 mg/kg, po administered once daily for 3 weeks; assay type: organism-based; settings: in vivo, 504 h
[4] = MRT (infinity) in Sprague-Dawley rat at 30 mg/kg, po as submicron emulsion measured after 24 hrs by LC-MS/MS analysis; assay type: ADME, organism-based; settings: in vivo
[5] = tested on: HCT-116; assay: Antitumor activity against human HCT-116 cells xenografted in female BALB/c nu-nu mouse assessed as downregulation of c-Myc mRNA expression at 40 mg/kg, po incubated for 48 hrs by qRT-PCR analysis; assay type: functional, organism-based
[6] = Metabolic stability in human liver microsome assessed as intrinsic clearance at 100 uM pre-incubated with compound for 60 mins followed by NADPH addition and measured up to 60 mins by LC-MS/MS analysis; assay type: ADME; settings: liver microsomes, read-out: CLH
[7] = Toxicity in female BALB/c nu-nu mouse xenografted with human HCT-116 cells assessed as histopathological changes in lung at 40 mg/kg, po administered once daily for 3 weeks by H and E staining based analysis; assay type: organism-based; settings: in vivo, 504 h
[8] = Tmax in Sprague-Dawley rat at 30 mg/kg, po measured after 24 hrs by LC-MS/MS analysis; assay type: ADME, organism-based; settings: in vivo
[9] = tested on: HCT-116; assay: Antitumor activity against human HCT-116 cells xenografted in female BALB/c nu-nu mouse assessed as tumor growth inhibition at 40 mg/kg, po administered once daily for 3 weeks by vernier caliper analysis; assay type: functional, organism-based
[10] = tested on: HCT-116; assay: Antitumor activity against human HCT-116 cells xenografted in female BALB/c nu-nu mouse assessed as increase in PARP cleavage at 40 mg/kg, po incubated for 48 hrs by Western blot analysis; assay type: functional, organism-based
[11] = Toxicity in female BALB/c nu-nu mouse xenografted with human HCT-116 cells assessed as histopathological changes in lung at 20 mg/kg, po as submicron emulsion administered once daily for 3 weeks by H and E staining based analysis; assay type: organism-based; settings: in vivo, 504 h
[12] = Toxicity in female BALB/c nu-nu mouse xenografted with human HCT-116 cells assessed as histopathological changes in kidney at 20 mg/kg, po as submicron emulsion administered once daily for 3 weeks by H and E staining based analysis; assay type: organism-based; settings: in vivo, 504 h
[13] = target: CYP1A2 (Homo sapiens, UniProt P05177); assay: Inhibition of CYP1A2 in human liver microsome at 10 uM pre-incubated with compound for 10 mins in presence of NADPH-regenerating system by LC-MS/MS analysis relative to control; assay type: ADME; settings: liver microsomes
Chain of CYP1A2 (P05177 whole entry): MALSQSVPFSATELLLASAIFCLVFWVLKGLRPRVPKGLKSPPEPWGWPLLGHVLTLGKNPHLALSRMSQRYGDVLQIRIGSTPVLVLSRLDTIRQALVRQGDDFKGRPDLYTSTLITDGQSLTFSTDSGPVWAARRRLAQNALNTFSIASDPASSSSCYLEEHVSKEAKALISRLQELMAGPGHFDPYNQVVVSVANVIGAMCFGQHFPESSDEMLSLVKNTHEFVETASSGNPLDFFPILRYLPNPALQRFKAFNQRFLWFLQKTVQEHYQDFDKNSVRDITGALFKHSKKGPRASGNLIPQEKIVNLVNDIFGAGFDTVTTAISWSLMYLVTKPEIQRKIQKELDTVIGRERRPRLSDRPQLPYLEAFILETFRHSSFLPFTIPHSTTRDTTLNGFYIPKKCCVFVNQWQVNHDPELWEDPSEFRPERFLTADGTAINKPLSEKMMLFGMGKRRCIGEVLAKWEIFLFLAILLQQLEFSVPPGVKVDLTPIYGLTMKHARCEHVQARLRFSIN

[14] = tested on: HCT-116; assay: Antitumor activity against human HCT-116 cells xenografted in female BALB/c nu-nu mouse assessed as increase in caspase-3 cleavage at 40 mg/kg, po incubated for 48 hrs by Western blot analysis; assay type: functional, organism-based
[15] = Toxicity in female BALB/c nu-nu mouse xenografted with human HCT-116 cells assessed as histopathological changes in kidney at 40 mg/kg, po administered once daily for 3 weeks by H and E staining based analysis; assay type: organism-based; settings: in vivo, 504 h
[16] = Metabolic stability in human liver microsome assessed as half life at 100 uM pre-incubated with compound for 60 mins followed by NADPH addition and measured up to 60 mins by LC-MS/MS analysis; assay type: ADME; settings: liver microsomes, time < 120 min
[17] = target: T1, CDK9/cyclin T1 (Homo sapiens, UniProt P50750); assay: Inhibition of His-tagged full length human recombinant CDK9/cyclinT1 using KTFCGTPEYLAPEVRREPRILSEEEQEMFRDFDYIADWC as substrate incubated for 60 mins by ADP-Glo kinase assay; assay type: protein-complex assay
T1 sequence (O60563 whole entry): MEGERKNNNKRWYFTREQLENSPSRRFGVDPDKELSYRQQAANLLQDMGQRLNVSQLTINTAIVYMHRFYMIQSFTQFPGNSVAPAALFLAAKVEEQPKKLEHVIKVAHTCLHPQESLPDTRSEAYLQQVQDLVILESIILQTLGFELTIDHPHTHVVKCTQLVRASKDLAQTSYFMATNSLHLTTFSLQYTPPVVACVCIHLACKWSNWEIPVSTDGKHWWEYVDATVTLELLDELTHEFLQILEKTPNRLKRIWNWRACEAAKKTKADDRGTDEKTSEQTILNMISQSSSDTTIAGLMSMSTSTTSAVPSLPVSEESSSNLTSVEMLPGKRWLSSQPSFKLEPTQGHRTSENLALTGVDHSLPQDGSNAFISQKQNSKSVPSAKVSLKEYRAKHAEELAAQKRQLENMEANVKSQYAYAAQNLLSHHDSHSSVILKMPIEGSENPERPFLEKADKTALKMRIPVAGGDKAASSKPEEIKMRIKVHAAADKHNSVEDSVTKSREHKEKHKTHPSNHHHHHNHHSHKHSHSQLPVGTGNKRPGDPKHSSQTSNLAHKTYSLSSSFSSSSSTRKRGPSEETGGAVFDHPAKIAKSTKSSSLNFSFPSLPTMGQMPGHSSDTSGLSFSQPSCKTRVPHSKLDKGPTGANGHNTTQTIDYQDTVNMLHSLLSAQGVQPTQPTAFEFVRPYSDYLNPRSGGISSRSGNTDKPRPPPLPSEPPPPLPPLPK
T1 sequence (P50750 whole entry): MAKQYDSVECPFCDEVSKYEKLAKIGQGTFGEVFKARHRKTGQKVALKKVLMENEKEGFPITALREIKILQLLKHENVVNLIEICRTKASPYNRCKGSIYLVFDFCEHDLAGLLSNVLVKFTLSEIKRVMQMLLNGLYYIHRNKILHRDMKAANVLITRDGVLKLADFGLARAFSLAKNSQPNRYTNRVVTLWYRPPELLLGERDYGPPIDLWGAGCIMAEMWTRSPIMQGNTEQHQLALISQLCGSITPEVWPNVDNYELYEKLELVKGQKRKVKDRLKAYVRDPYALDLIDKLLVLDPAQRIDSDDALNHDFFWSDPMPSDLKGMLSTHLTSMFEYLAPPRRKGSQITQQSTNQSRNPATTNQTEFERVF

[18] = Oral bioavailability in Sprague-Dawley rat at 30 mg/kg measured after 24 hrs by LC-MS/MS analysis; assay type: ADME, organism-based; settings: in vivo
[19] = AUC (0 to infinity) in Sprague-Dawley rat at 30 mg/kg, po measured after 24 hrs by LC-MS/MS analysis; assay type: ADME, organism-based; settings: in vivo
[20] = tested on: HCT-116; assay: Induction of cell cycle arrest in human HCT-116 cells assessed as accumulation of cells at S phase incubated for 48 hrs by PI/RNase staining based flow cytometry analysis; assay type: functional
[21] = Half life in Sprague-Dawley rat at 30 mg/kg, po as submicron emulsion measured after 24 hrs by LC-MS/MS analysis; assay type: ADME, organism-based; settings: in vivo
[22] = target: T1, CDK9/cyclin T1; assay: Binding affinity to CDK9/cyclin T1 (unknown origin) assessed as dissociation constant by SPR analysis; assay type: protein-complex assay
[23] = Toxicity in female BALB/c nu-nu mouse xenografted with human HCT-116 cells assessed as histopathological changes in liver at 20 mg/kg, po as submicron emulsion administered once daily for 3 weeks by H and E staining based analysis; assay type: organism-based; settings: in vivo, 504 h
[24] = MRT (infinity) in Sprague-Dawley rat at 2 mg/kg, iv measured after 24 hrs by LC-MS/MS analysis; assay type: ADME, organism-based; settings: in vivo
[25] = Metabolic stability in human liver assessed as intrinsic clearance at 100 uM pre-incubated with compound for 60 mins followed by NADPH addition and measured up to 60 mins by LC-MS/MS analysis; assay type: ADME, tissue-based; settings: read-out: CLH
[26] = tested on: PANC-1; assay: Cytotoxicity against human PANC-1 cells assessed as cell viability incubated for 48 hrs by CCK8 assay; assay type: functional, cell-based
[27] = tested on: HCT-116; assay: Antiproliferative activity against human HCT-116 cells assessed as reduction in colony formation incubated for 14 days by crystal violet staining based analysis; assay type: functional, cell-based; settings: dose 50-400 nM, time 14.0 day
[28] = Toxicity in female BALB/c nu-nu mouse xenografted with human HCT-116 cells assessed as body weight loss at 20 mg/kg, po as submicron emulsion administered once daily for 3 weeks; assay type: organism-based; settings: in vivo, 504 h
[29] = tested on: HCT-116; assay: Induction of apoptosis in human HCT-116 cells assessed as increase in caspase-3 cleavage incubated for 48 hrs by Western blot analysis; assay type: functional, cell-based; settings: dose 100-400 nM
[30] = tested on: HCT-116; assay: Antitumor activity against human HCT-116 cells xenografted in female BALB/c nu-nu mouse assessed as reduction in Ki67 positive cells at 20 mg/kg, po as submicron emulsion by staining based analysis; assay type: functional, organism-based
[31] = AUC (0 to infinity) in Sprague-Dawley rat at 30 mg/kg, po as submicron emulsion measured after 24 hrs by LC-MS/MS analysis; assay type: ADME, organism-based; settings: in vivo
[32] = target: CYP2D6 (Homo sapiens, UniProt P10635); assay: Inhibition of CYP2D6 in human liver microsome at 10 uM pre-incubated with compound for 10 mins in presence of NADPH-regenerating system by LC-MS/MS analysis relative to control; assay type: ADME; settings: liver microsomes
Chain of CYP2D6 (P10635 whole entry): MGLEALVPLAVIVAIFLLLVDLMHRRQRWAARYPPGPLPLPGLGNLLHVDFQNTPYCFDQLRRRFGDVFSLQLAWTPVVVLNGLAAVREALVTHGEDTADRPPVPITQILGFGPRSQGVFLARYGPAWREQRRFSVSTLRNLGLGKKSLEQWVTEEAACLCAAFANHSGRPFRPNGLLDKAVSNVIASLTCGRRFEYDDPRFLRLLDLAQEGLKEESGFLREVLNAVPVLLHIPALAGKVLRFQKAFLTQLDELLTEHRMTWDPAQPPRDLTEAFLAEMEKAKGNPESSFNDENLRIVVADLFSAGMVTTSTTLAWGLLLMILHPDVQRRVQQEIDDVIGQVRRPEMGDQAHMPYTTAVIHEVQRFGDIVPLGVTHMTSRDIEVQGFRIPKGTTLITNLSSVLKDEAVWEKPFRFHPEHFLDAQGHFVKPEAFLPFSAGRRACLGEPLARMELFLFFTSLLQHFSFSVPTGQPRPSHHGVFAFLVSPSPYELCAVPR

[33] = tested on: HCT-116; assay: Downregulation of Mcl-1 mRNA level in human HCT-116 cells at 200 to 400 nM incubated for 48 hrs by qRT-PCR analysis; assay type: functional, cell-based; settings: dose 200-400 nM
[34] = Oral bioavailability in Sprague-Dawley rat at 30 mg/kg as submicron emulsion measured after 24 hrs by LC-MS/MS analysis; assay type: ADME, organism-based; settings: in vivo

CC(C)Oc1cc(F)ccc1-c1ccnc(NC(=O)Nc2cccc(C(=O)N3CCN(C)CC3)c2)c1
Activity [1]: Active
Activity [2]: Active
Activity [3]: Non-toxic
MRT inf [4]: 125 min
Activity [5]: Active
microsomal CLint at 100 µM [6]: 352 µL/min/mg
Activity [7]: Non-toxic
Tmax [8]: 15 min
Activity [9]: Active
Activity [10]: Active
Activity [11]: Non-toxic
Activity [12]: Non-toxic
inhibition at 10 µM [13]: 12.5%
Activity [14]: Active
Activity [15]: Non-toxic
half-life at 100 µM [16]: 3.9 min
IC50 [17]: 0.00651 µM
bioavailability [18]: 14.7%
AUC [19]: 900 ng·h/mL
Activity [20]: Active
half-life [21]: 55.2 min
Kd [22]: 8.87 µM
Activity [23]: Non-toxic
MRT inf [24]: 20.1 min
CLint scaled at 100 µM [25]: 317 mL/min/kg
Activity [26]: Active
Activity [27]: Dose-dependent-effect
Activity [28]: Non-toxic
Activity [29]: Dose-dependent-effect
Activity [30]: Active
AUC [31]: 1611 ng·h/mL
inhibition at 10 µM [32]: 42.6%
Activity [33]: Active
bioavailability [34]: 26.4%
